# Results: PMC7070167, “Cell‐permeable high‐affinity tracers for Gq proteins provide structural insights, reveal distinct binding kinetics and identify small molecule inhibitors” (British Journal of Pharmacology, 2020)
# pIC50: −log10 of the molar value. Like-named read-outs stand apart in the source and are kept apart here. *1 amine or outer side, *2 acyl side, *3 side chain or, on linkers, in order; H or OH if unused. Where a SMILES comes first, the peptide text is derived from it. Bridges are numbered along the chain shown (N, C = ends). [ ]: non-standard residue; d: D form. The star is where a group is joined. Leu(3R-O(AcLeu(3R-OH))) = CC(=O)N[C@H](C(=O)O[C@H](C(C)C)[C@H](N)C(=O)O)[C@H](O)C(C)C; Leu(3R-OH,Nα-propionyl) = CCC(=O)N[C@H](C(=O)*)[C@H](O)C(C)C; X1 = CC(C)[C@@H](O[*:3])[C@H](N[*:1])C(=O)[*:2]; NMeT = CN[C@H](C(=O)O)[C@@H](C)O; dPhLac = O=C(O)[C@H](O)Cc1ccccc1; NMeA = CN[C@@H](C)C(=O)O; NMeDha = C=C(NC)C(=O)O
# Target: T1, human Gα11 (Homo sapiens, UniProt P29992)
# T1 construct: expressed in transfected cells; membrane preparations
# T1 sequence (P29992 1-359): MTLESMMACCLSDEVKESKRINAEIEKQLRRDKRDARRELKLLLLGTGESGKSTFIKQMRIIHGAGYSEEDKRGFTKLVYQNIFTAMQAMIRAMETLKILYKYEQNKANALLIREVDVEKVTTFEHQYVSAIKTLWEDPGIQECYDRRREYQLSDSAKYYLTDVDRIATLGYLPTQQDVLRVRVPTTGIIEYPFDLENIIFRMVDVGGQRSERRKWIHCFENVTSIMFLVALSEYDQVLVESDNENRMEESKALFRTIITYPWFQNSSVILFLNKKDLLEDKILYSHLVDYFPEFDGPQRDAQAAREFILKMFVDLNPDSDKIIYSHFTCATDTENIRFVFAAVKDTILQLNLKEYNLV
# Assay: Competition binding at membranes of HEK-CRISPR-Cas9-Gαq-KO cells expressing Gα11
# Protocol: cDNAs encoding for the α‐subunits of the human G11, G14, G15 and mouse Gq guanine nucleotide‐binding proteins in a pcDNA3.1(+) vector were obtained from E. Kostenis. CRISPR/Cas9‐Gαq‐knockout (KO) HEK293 cells were from M. Yamaguchi. The protein sequences of the human and mouse Gαq proteins differ only by one amino acid in position 171 (alanine in human and serine in mouse). […]. After 16 hr, 3 ml of DMEM containing 10% FBS, 1% of a penicillin/streptomycin solution (final concentrations: penicillin = 100 U·ml^−1, streptomycin = 0.1 mg·ml^−1), and sodium butyrate (5 mM) was added to the packaging cells. They were kept at 32°C and 5% CO2 for 48 hr, during which the viral vectors containing the receptor sequence were produced and released into the surrounding medium. These were harvested, filtered ([…] filter pore diameter), and added to HEK293 cells that had previously been modified via CRISPR/Cas9 genome editing to lack Gαq expression. Polybrene solution (6 μl, 4 mg·ml^−1 in H2O, filtered) was added. After 2.5 hr, the virus‐containing medium was discarded, and DMEM supplemented with 10% FBS and 1% of a penicillin/streptomycin solution (final concentrations: penicillin = 100 U·ml^−1, streptomycin = 0.1 mg·ml^−1) was given to the cells. These were incubated for 2 days, followed by selection of successfully transfected cells with geneticin resistance by adding G418 (200 μg·ml^−1) to the medium. The cells were cultured in these media at 37°C and 10% CO2 until membrane preparations were generated.
# Recombinant HEK cells were cultured to 70% of confluence. The culture medium was discarded, and cells were washed once with approximately 5 ml of PBS. Dishes were stored at −20°C until further use. After defrosting, cells were detached with a rubber scraper after adding 5‐mM Tris–HCl, 2‐mM EDTA, pH 7.4. The collected cell suspension was homogenized using an Ultra‐Turrax® for 1 min at a speed level of 4. The cell suspension was transferred into tubes and centrifuged for 10 min at 1,000 g, 4°C. The pellet (P1) was discarded, and the supernatant was centrifuged for 45 min at 48,400 g, 4°C. The resulting supernatant was discarded, and the pellet (P2) was resuspended in 50‐mM Tris–HCl, pH 7.4, and centrifuged again for 45 min at 48,400 g, 4°C. This step was repeated once again, and the suspension was subsequently homogenized using an Ultra‐Turrax® for 1 min at a speed level of 4 (IKA Laborechnik), transferred into cryovials, and stored at −80°C (for up to several months). […]
# The experiments were performed in 50‐mM Tris–HCl buffer, pH 7.4. […] Non‐specific binding was determined in the presence of 5‐μM FR. […] Luma Safe® scintillation cocktail (2.5 ml) was added, and after 6 hr of incubation, the samples were counted for 1 min each, using a liquid scintillation counter (counting efficiency 53%). […]
SMILES,"Pseudo-Bmax ± SD (YM versus [³H]PSB-16254 (5 nM), 37°C, G11) [pmol/mg]","IC50 (YM versus [³H]PSB-16254 (5 nM), 37°C, G11, read-out: pIC50 ± SD (converted)) [nM]",pIC50,"Pseudo-Bmax ± SD (FR versus [³H]PSB-15900 (5 nM), 37°C, G11) [pmol/mg]"
"C=C1C(=O)N[C@@H](C)C(=O)N(C)[C@@H](C)C(=O)N[C@@H]([C@H](OC(=O)[C@@H](NC(C)=O)[C@H](O)C(C)C)C(C)C)C(=O)N(C)[C@@H]([C@@H](C)OC)C(=O)O[C@H](C)[C@H](NC(C)=O)C(=O)O[C@H](Cc2ccccc2)C(=O)N1C [YM, YM‐254890] (Ac-T[dPhLac][NMeDha]A[NMeA][Leu(3R-O(AcLeu(3R-OH)))][NMeT](Me); ester 1-C)",6.23 ± 2.92,8.71,–,–
"C=C1C(=O)N[C@@H](C)C(=O)N(C)[C@@H](C)C(=O)N[C@@H]([C@H](OC(=O)[C@@H](NC(=O)CC)[C@H](O)C(C)C)C(C)C)C(=O)N(C)[C@@H]([C@@H](C)OC)C(=O)O[C@H](C(C)C)[C@H](NC(C)=O)C(=O)O[C@H](Cc2ccccc2)C(=O)N1C [FR, FR900359] (Ac-[X1][dPhLac][NMeDha]A[NMeA][X1](Leu(3R-OH,Nα-propionyl))[NMeT](Me); ester 1-C)",–,–,7.98,6.23 ± 1.39
